According to patent US20110150961A1, “ANTI-INFECTIVE CATHETERS” (priority 2008, published 2011):
≈ marks a conversion by molar mass, not a printed value. Where “and” joins values, the source holds several entries; their conditions need not be identical. Identical values can stand only once. Like-named read-outs stand apart in the source and are kept apart here.

Columns and labels:
E. coli [1] = experiment: MIC testing by broth microdilution, clinical isolates (Example 4); type: cell-based; details: Escherichia coli, N=102
Method: (§1) The Gram-positive organisms tested were S. epidermidis, methicillin resistant S. epidermidis (MRSE), S. aureus, methicillin resistant S. aureus (MRSA), E. faecalis and vancomycin resistant E. faecalis, the Gram-negative organisms tested were P. aeruginosa, E. coli and K. pneumoniae .
(§2) For MIC testing, all isolates were tested against 5-FU by broth microdilution following CLSI methodology (M7-A7).

E. faecalis [2] = experiment: as above; type: cell-based
Method: as §1, §2

K. pneumoniae [3] = experiment: as above; type: cell-based; details: Klebsiella pneumoniae, N=104
Method: as §1, §2

P. aeruginosa [4] = experiment: as above; type: cell-based; details: Pseudomonas aeruginosa, N=100
Method: as §1, §2

S. aureus [5] = experiment: as above; type: cell-based
Method: as §1, §2

S. epidermidis [6] = experiment: as above; type: cell-based
Method: as §1, §2

Gram-negative isolates = experiment: MIC testing by broth microdilution, summary (Example 4); type: cell-based; details: range over organisms
Method: as §1, §2

Gram-positive organisms = experiment: as above; type: cell-based; details: range over organisms
Method: as §1, §2

E. coli [7] = experiment: Broth microdilution MIC and MBC (Example 9); type: cell-based
Method: (§3) Minimal bactericidal concentrations (MBCs) were determined for bacterial isolates associated with catheter-related infections (Attachment 18.18). Broth microdilution MBCs were determined by first performing the standard broth microdilution technique to establish the 5-FU MIC for each organism (CLSI M7-A7). […] were sampled to determine the MBC as defined as the concentration at which a ≧99.9% reduction in the colony forming units relative to the starting inoculum concentration was achieved. When the MBC:MIC ratio for 5-FU was […].

E. faecalis [8] = experiment: Broth microdilution MIC and MBC (Example 9); type: cell-based
Method: as §3

K. pneumoniae [9] = experiment: Broth microdilution MIC and MBC (Example 9); type: cell-based
Method: as §3

P. aeruginosa [10] = experiment: Broth microdilution MIC and MBC (Example 9); type: cell-based
Method: as §3

S. aureus [11] = experiment: Broth microdilution MIC and MBC (Example 9); type: cell-based
Method: as §3

S. epidermidis [12] = experiment: Broth microdilution MIC and MBC (Example 9); type: cell-based
Method: as §3

E. faecalis ATCC 29212 = experiment: MIC and MBC on ATCC control strains (Example 10); type: cell-based
Excerpt: (§4) The Gram-positive organisms tested were S. epidermidis ATCC 12228, S. aureus ATCC 25923, and E. faecalis ATCC 29212. The Gram-negative strains tested were P. aeruginosa ATCC 27853, K. pneumonia ATCC 700603 and E. coli ATCC 25922.

P. aeruginosa ATCC 27853 = experiment: MIC and MBC on ATCC control strains (Example 10); type: cell-based
Excerpt: as §4

S. aureus ATCC 25923 = experiment: MIC and MBC on ATCC control strains (Example 10); type: cell-based
Excerpt: as §4

[13] = tested on: S. epidermidis ATCC 12228; experiment: MIC and MBC on ATCC control strains (Example 10); type: cell-based
Excerpt: as §4

K. pneumonia ATCC 700603 = experiment: MIC and MBC on ATCC control strains (Example 10); type: cell-based, K. pneumoniae
Excerpt: as §4

[14] = tested on: S. epidermidis and S. aureus
Excerpt: Microbial resistance is a concern associated with repeated exposure to anti-microbial agents.

[15] = IV, cited from earlier work
mammalian species = mammalian species (PDR 1998); cited from earlier work

O=c1[nH]cc(F)c(=O)[nH]1 [5-FU, 5-fluorouracil]
MIC50 (E. coli [1]): 32 µg/mL (≈ 246 µM)
MIC90 (E. coli [1]): 64 µg/mL (≈ 492 µM)
MIC50 (E. faecalis [2]; Enterococcus faecalis, all, N=101, read-out: MIC50): 0.015 µg/mL (≈ 0.115 µM)
MIC90 (E. faecalis [2]; Enterococcus faecalis, all, N=101, read-out: MIC90): 0.06 µg/mL (≈ 0.461 µM)
MIC50 (E. faecalis [2]; Vancomycin-R, N=21): 0.015 µg/mL (≈ 0.115 µM)
MIC90 (E. faecalis [2]; Vancomycin-R, N=21): 0.06 µg/mL (≈ 0.461 µM)
MIC50 (E. faecalis [2]; Vancomycin-S, N=80): 0.015 µg/mL (≈ 0.115 µM)
MIC90 (E. faecalis [2]; Vancomycin-S, N=80): 0.06 µg/mL (≈ 0.461 µM)
MIC50 (K. pneumoniae [3]): 128 µg/mL (≈ 984 µM)
MIC90 (K. pneumoniae [3]): > 512 µg/mL
MIC50 (P. aeruginosa [4]): 16 µg/mL (≈ 123 µM)
MIC90 (P. aeruginosa [4]): 64 µg/mL (≈ 492 µM)
MIC50 (S. aureus [5]; Oxacillin-R, N=40): 0.12 µg/mL (≈ 0.923 µM)
MIC50 (S. aureus [5]; Oxacillin-S, N=61): 0.12 µg/mL (≈ 0.923 µM)
MIC90 (S. aureus [5]; Staphylococcus aureus, Oxacillin-R, N=40): 0.12 µg/mL (≈ 0.923 µM)
MIC90 (S. aureus [5]; Staphylococcus aureus, Oxacillin-S, N=61): 0.25 µg/mL (≈ 1.92 µM)
MIC90 (S. aureus [5]; Staphylococcus aureus, all, N=101): 0.25 µg/mL (≈ 1.92 µM)
MIC50 (S. aureus [5]; Staphylococcus aureus, all, N=101, read-out: MIC50): 0.12 µg/mL (≈ 0.923 µM)
MIC50 (S. epidermidis [6]; Oxacillin-R, N=78): 0.06 µg/mL (≈ 0.461 µM)
MIC50 (S. epidermidis [6]; Oxacillin-S, N=22): 0.06 µg/mL (≈ 0.461 µM)
MIC90 (S. epidermidis [6]; Staphylococcus epidermidis, Oxacillin-R, N=78): 0.5 µg/mL (≈ 3.84 µM)
MIC90 (S. epidermidis [6]; Staphylococcus epidermidis, Oxacillin-S, N=22): 0.12 µg/mL (≈ 0.923 µM)
MIC90 (S. epidermidis [6]; Staphylococcus epidermidis, all, N=100): 0.25 µg/mL (≈ 1.92 µM)
MIC50 (S. epidermidis [6]; Staphylococcus epidermidis, all, N=100, read-out: MIC50): 0.06 µg/mL (≈ 0.461 µM)
MIC50 (Gram-negative isolates): 16 to 128 µg/mL (≈ 123 to 984 µM)
MIC50 (Gram-positive organisms): 0.015 to 0.12 µg/mL (≈ 0.115 to 0.923 µM)
MIC range (E. coli [7]; 10 strains): 0.25 to 64 µg/mL
bactericidal, number of strains (E. coli [7]; by MBC:MIC ratio): 1 of the 10
MIC range (E. faecalis [8]; 10 strains): 0.008 to 0.12 µg/mL
bactericidal, number of strains (E. faecalis [8]; by MBC:MIC ratio): 8 of the 10
MBC range (E. faecalis [8]; ≧99.9% reduction in CFU): 0.008 to 0.25 µg/mL
MBC (K. pneumoniae [9]; Klebsiella pneumoniae, ≧99.9% reduction in CFU, read-out: MBC (all strains)): > 512 µg/mL
bactericidal activity (K. pneumoniae [9]; by MBC:MIC ratio): no bactericidal activity
MBC (P. aeruginosa [10]; Pseudomonas aeruginosa, ≧99.9% reduction in CFU, read-out: MBC (all strains)): > 512 µg/mL
bactericidal activity (P. aeruginosa [10]; by MBC:MIC ratio): no bactericidal activity
MIC range (S. aureus [11]; S. aureus, 11 strains): 0.03 to 0.25 µg/mL
bactericidal, number of strains (S. aureus [11]; S. aureus, by MBC:MIC ratio): 4 of the 11
MBC range (S. aureus [11]; S. aureus, ≧99.9% reduction in CFU): 0.12 to 32 µg/mL
MIC (S. aureus [11]; Staphylococcus aureus, methicillin resistant S. aureus, N=5, read-out: averaged MIC): 0.12 µg/mL (≈ 0.923 µM)
MIC range (S. epidermidis [12]; S. epidermidis, 10 strains): 0.03 to 0.25 µg/mL
bactericidal, number of strains (S. epidermidis [12]; S. epidermidis, by MBC:MIC ratio): 6 of the 11
MBC range (S. epidermidis [12]; S. epidermidis, ≧99.9% reduction in CFU): 0.03 to 0.25 µg/mL
MIC (S. epidermidis [12]; Staphylococcus epidermidis, methicillin resistant S. epidermidis, N=8, read-out: averaged MIC): 0.08 µg/mL (≈ 0.615 µM)
MBC (E. faecalis ATCC 29212; Enterococcus faecalis, ATCC29212, read-out: MBC): 3.7 µg/mL (≈ 28.4 µM)
MIC (E. faecalis ATCC 29212; Enterococcus faecalis, ATCC29212, read-out: MIC): 3.7 µg/mL (≈ 28.4 µM)
MBC (P. aeruginosa ATCC 27853; Pseudomonas aeruginosa, ATCC27853, read-out: MBC): > 100 µg/mL
MIC (P. aeruginosa ATCC 27853; Pseudomonas aeruginosa, ATCC27853, read-out: MIC): > 100 µg/mL
MBC (S. aureus ATCC 25923; Staphylococcus aureus, ATCC25923, read-out: MBC): 1.23 µg/mL (≈ 9.46 µM)
MIC (S. aureus ATCC 25923; Staphylococcus aureus, ATCC25923, read-out: MIC): 1.23 µg/mL (≈ 9.46 µM)
MBC ([13]; Staphylococcus epidermidis, ATCC12228, read-out: MBC): 0.41 µg/mL (≈ 3.15 µM)
MIC ([13]; Staphylococcus epidermidis, ATCC12228, read-out: MIC): 0.14 µg/mL (≈ 1.08 µM)
MBC (K. pneumonia ATCC 700603; Klebsiella pneumoniae, ATCC700603, read-out: MBC): > 100 µg/mL
MIC (K. pneumonia ATCC 700603; Klebsiella pneumoniae, ATCC700603, read-out: MIC): 100 µg/mL (≈ 769 µM)
Historical 5-FU MIC values [14]: 0.06 to 0.12 µg/mL
plasma levels ([15]; continuous infusion): about 10 μM
plasma concentrations ([15]; rapid infusion): 0.1-1.0 mM and 13-130 μg/ml
LD50 (mammalian species): 94 to 880 mg/kg

O=c1[nH]c(=O)n([C@H]2C[C@H](O)[C@@H](CO)O2)cc1F [Flox, floxuridine]
MBC (E. faecalis ATCC 29212): 11.11 µg/mL (≈ 45.1 µM)
MIC (E. faecalis ATCC 29212): 3.7 µg/mL (≈ 15 µM)
MBC (P. aeruginosa ATCC 27853): >100 µg/mL
MIC (P. aeruginosa ATCC 27853): >100 µg/mL
MBC (S. aureus ATCC 25923): 0.14 µg/mL (≈ 0.569 µM)
MIC (S. aureus ATCC 25923): <0.05 µg/mL
MBC [13]: <0.05 µg/mL
MIC [13]: <0.05 µg/mL
MBC (K. pneumonia ATCC 700603): 3.7 µg/mL (≈ 15 µM)
MIC (K. pneumonia ATCC 700603): 1.23 µg/mL (≈ 5 µM)
